Results published in US20080200539A1, “Topical antifungal treatment” (priority 2002, published 2008).

Columns and labels:
[1] = Topical vitamin A on surgical incision area in post surgical patients; assay type: in vivo; conditions: 50,000 international units applied topically
From the text: Vitamin A is a fat soluble vitamin that is used in a wide dosage range from 5 to 50,000 I.U. to assist in healing. […] Vitamin A is also important for nutritional support. Vitamin D is also a fat soluble vitamin utilized in nutritional support. Vitamin D is not recommended in doses of over 6000 International Units per day. Topical applications with vitamin A and D have been used for years to enhance healing and repair damaged skin.

[2] = tested on: Microsporum gypseum; conditions: cited from earlier work
[3] = tested on: Microsporum canis; conditions: cited from earlier work
[4] = tested on: Microsporum audouini; conditions: cited from earlier work
[5] = tested on: Microsporum japonicum; conditions: cited from earlier work
[6] = tested on: Trichophyton rubrum; conditions: cited from earlier work
[7] = tested on: Trichophyton mentagrophytes; conditions: cited from earlier work
[8] = tested on: Trichophyton schoenleinii; conditions: cited from earlier work
[9] = tested on: Trichophyton tonsurans; conditions: cited from earlier work
[10] = tested on: Epidermophytom flocossum; conditions: cited from earlier work
[11] = tested on: Aspergillis niger; conditions: cited from earlier work
[12] = tested on: nails infected by dermatophytes; conditions: cited from earlier work
[13] = pH of triacetin when applied to the skin; assay type: physicochemical
From the text: Triacetin also acts to decrease the pH of the application area It is known that fungus like moist areas and thrive in environments with a normal acidity, pH 6.5 to 7.2. Yeasts die in low pH environments, i.e. pH levels in the range of 4.5 or less, and infectious fungi are adversely affected in low pH environments. Triacetin has a pH of 4.0 when applied to the skin, and effectively lowers the pH of the application area. As triacetin breaks down after application, it produces acetic acid, a weak antifungal agent. Triacetin also acts to lower the moisture content in the application area, which aids in creating an adverse environment for fungal growth. In high concentrations, such as in this preparation, triacetin reduces the secretion of moisture during perspiration, due to an astringent effect, or antihyperhydrosis effect. Triacetin also acts to reduce moisture by bonding with the moisture available in the affected area, reducing the opportunity or availability of the moisture to be utilized by the fungal cells. After application, triacetin also coats the application area, saturating the epidermis and limiting moisture available for fungal growth. Finally, triacetin can also be used for nutritional support whether administered orally, topically or intravenously, to restore healthy, normal skin as is seen with the topical administration of this preparation.

[14] = tested on: superficial fungal infections of the skin; conditions: used alone; previous clinical studies by others; cited from earlier work

Question: For Vitamin A, which healing time [1] is on record?
Answer: improved healing time

Question: For `Cc1cccc(N(C)C(=S)Oc2ccc3ccccc3c2)c1` [tolnaftate], which in vitro activity [2] is on record?
Answer: fungistatic or fungicidal

Question: And the in vitro activity [3]?
Answer: fungistatic or fungicidal

Question: And the in vitro activity [4]?
Answer: fungistatic or fungicidal

Question: What about the in vitro activity [5] of the same molecule?
Answer: fungistatic or fungicidal

Question: And the in vitro activity [6]?
Answer: fungistatic or fungicidal

Question: What about the in vitro activity [7] of the same molecule?
Answer: fungistatic or fungicidal

Question: And the in vitro activity [8]?
Answer: fungistatic or fungicidal

Question: What about the in vitro activity [9] of the same molecule?
Answer: fungistatic or fungicidal

Question: And the in vitro activity [10]?
Answer: fungistatic or fungicidal

Question: And the “activity against Aspergillis niger” value [11]?
Answer: varies from one strain to another

Question: With `CN(C/C=C/C#CC(C)(C)C)Cc1cccc2ccccc12` [terbinafine] as the molecule, how does the “duration of continuous daily intake needed to show some efficacy” value [12] read?
Answer: three months or more

Question: What does the source list for `CC(=O)OCC(COC(C)=O)OC(C)=O` [Triacetin]?
Answer: pH [13]: 4.0; effectiveness as an antifungal agent [14]: only mildly effective
